# PubChem BioAssay (NCI)
#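 Following 48 hours of exposure in 96-well plates, responses at five concentrations were used to interpolate endpoints linearly. The concentration for 50% growth inhibition is given as GI50. TGI is the concentration that stops growth completely.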
# Assays:
# Assay in all cases: DTP human tumour cell line panel, 48 h
# 786-0 renal = test system: 786-0 renal
# A549 NSCLC = test system: A549 NSCLC
# ACHN renal = test system: ACHN renal
# CAKI-1 renal = test system: CAKI-1 renal
# CCRF-CEM leukemia = test system: CCRF-CEM leukemia
# COLO 205 colon = test system: COLO 205 colon
# DLD-1 colon = test system: DLD-1 colon
# DMS 273 small cell lung = test system: DMS 273 small cell lung
# EKVX NSCLC = test system: EKVX NSCLC
# HCC-2998 colon = test system: HCC-2998 colon
# HCT-116 colon = test system: HCT-116 colon
# HCT-15 colon = test system: HCT-15 colon
# HL-60(TB) leukemia = test system: HL-60(TB) leukemia
# HOP-18 NSCLC = test system: HOP-18 NSCLC
# HOP-62 NSCLC = test system: HOP-62 NSCLC
# HOP-92 NSCLC = test system: HOP-92 NSCLC
# HT29 colon = test system: HT29 colon
# IGROV1 ovarian = test system: IGROV1 ovarian
# K-562 leukemia = test system: K-562 leukemia
# KM12 colon = test system: KM12 colon
# KM20L2 colon = test system: KM20L2 colon
# LOX IMVI melanoma = test system: LOX IMVI melanoma
# LXFL 529 NSCLC = test system: LXFL 529 NSCLC
# M14 melanoma = test system: M14 melanoma
# M19-MEL melanoma = test system: M19-MEL melanoma
# MALME-3M melanoma = test system: MALME-3M melanoma
# MOLT-4 leukemia = test system: MOLT-4 leukemia
# NCI-H226 lung = test system: NCI-H226 lung
# NCI-H23 lung = test system: NCI-H23 lung
# NCI-H460 lung = test system: NCI-H460 lung
# NCI-H522 lung = test system: NCI-H522 lung
# OVCAR-3 ovarian = test system: OVCAR-3 ovarian
# OVCAR-4 ovarian = test system: OVCAR-4 ovarian
# OVCAR-5 ovarian = test system: OVCAR-5 ovarian
# OVCAR-8 ovarian = test system: OVCAR-8 ovarian
# RXF 393 renal = test system: RXF 393 renal
# SF-268 CNS = test system: SF-268 CNS
# SF-295 CNS = test system: SF-295 CNS
# SF-539 CNS = test system: SF-539 CNS
# SK-MEL-2 melanoma = test system: SK-MEL-2 melanoma
# SK-MEL-28 melanoma = test system: SK-MEL-28 melanoma
# SK-MEL-5 melanoma = test system: SK-MEL-5 melanoma
# SK-OV-3 ovarian = test system: SK-OV-3 ovarian
# SN12C renal = test system: SN12C renal
# SNB-19 CNS = test system: SNB-19 CNS
# SNB-75 CNS = test system: SNB-75 CNS
# SNB-78 CNS = test system: SNB-78 CNS
# SW-620 colon = test system: SW-620 colon
# U251 CNS = test system: U251 CNS
# UACC-257 melanoma = test system: UACC-257 melanoma
# UACC-62 melanoma = test system: UACC-62 melanoma
# UO-31 renal = test system: UO-31 renal
structure (smiles),measurement,setting,value
CC(C)(C)C([O-])=C1C(=O)c2ccccc2C1=O.CC(C)(C)C([O-])=C1C(=O)c2ccccc2C1=O.CC[O-].CC[O-].[Ti+4],GI50,786-0 renal,47.2 µM
same,TGI,786-0 renal,> 100 µM
same,GI50,A549 NSCLC,36.2 µM
same,TGI,A549 NSCLC,> 100 µM
same,GI50,ACHN renal,35.2 µM
same,TGI,ACHN renal,> 100 µM
same,GI50,CAKI-1 renal,28 µM
same,TGI,CAKI-1 renal,81.7 µM
same,GI50,CCRF-CEM leukemia,38.8 µM
same,TGI,CCRF-CEM leukemia,> 100 µM
same,GI50,COLO 205 colon,22.7 µM
same,TGI,COLO 205 colon,44.7 µM
same,GI50,DLD-1 colon,46.9 µM
same,TGI,DLD-1 colon,> 100 µM
same,GI50,DMS 273 small cell lung,31.2 µM
same,TGI,DMS 273 small cell lung,> 100 µM
same,GI50,EKVX NSCLC,21.7 µM
same,TGI,EKVX NSCLC,63.9 µM
same,GI50,HCC-2998 colon,40.3 µM
same,TGI,HCC-2998 colon,> 100 µM
same,GI50,HCT-116 colon,37.7 µM
same,TGI,HCT-116 colon,> 100 µM
same,GI50,HCT-15 colon,29.5 µM
same,TGI,HCT-15 colon,> 100 µM
same,GI50,HL-60(TB) leukemia,27.1 µM
same,TGI,HL-60(TB) leukemia,67 µM
same,GI50,HOP-18 NSCLC,18.2 µM
same,TGI,HOP-18 NSCLC,83.3 µM
same,GI50,HOP-62 NSCLC,37.7 µM
same,TGI,HOP-62 NSCLC,> 100 µM
same,GI50,HOP-92 NSCLC,26.9 µM
same,TGI,HOP-92 NSCLC,> 100 µM
same,GI50,HT29 colon,32.9 µM
same,TGI,HT29 colon,> 100 µM
same,GI50,IGROV1 ovarian,70.4 µM
same,TGI,IGROV1 ovarian,> 100 µM
same,GI50,K-562 leukemia,44.9 µM
same,TGI,K-562 leukemia,> 100 µM
same,GI50,KM12 colon,37.6 µM
same,TGI,KM12 colon,> 100 µM
same,GI50,KM20L2 colon,29.2 µM
same,TGI,KM20L2 colon,> 100 µM
same,GI50,LOX IMVI melanoma,40.4 µM
same,TGI,LOX IMVI melanoma,> 100 µM
same,GI50,LXFL 529 NSCLC,39.9 µM
same,TGI,LXFL 529 NSCLC,> 100 µM
same,GI50,M14 melanoma,57.4 µM
same,TGI,M14 melanoma,> 100 µM
same,GI50,M19-MEL melanoma,31.5 µM
same,TGI,M19-MEL melanoma,> 100 µM
same,GI50,MALME-3M melanoma,17.3 µM
same,TGI,MALME-3M melanoma,38.5 µM
same,GI50,MOLT-4 leukemia,22.4 µM
same,TGI,MOLT-4 leukemia,61.9 µM
same,GI50,NCI-H226 lung,56.7 µM
same,TGI,NCI-H226 lung,> 100 µM
same,GI50,NCI-H23 lung,31.8 µM
same,TGI,NCI-H23 lung,> 100 µM
same,GI50,NCI-H460 lung,32.1 µM
same,TGI,NCI-H460 lung,> 100 µM
same,GI50,NCI-H522 lung,21.7 µM
same,TGI,NCI-H522 lung,54.2 µM
same,GI50,OVCAR-3 ovarian,27.9 µM
same,TGI,OVCAR-3 ovarian,91.4 µM
same,GI50,OVCAR-4 ovarian,58.7 µM
same,TGI,OVCAR-4 ovarian,> 100 µM
same,GI50,OVCAR-5 ovarian,34.8 µM
same,TGI,OVCAR-5 ovarian,> 100 µM
same,GI50,OVCAR-8 ovarian,29.3 µM
same,TGI,OVCAR-8 ovarian,90.1 µM
same,GI50,RXF 393 renal,10.8 µM
same,TGI,RXF 393 renal,90.3 µM
same,GI50,SF-268 CNS,70.6 µM
same,TGI,SF-268 CNS,> 100 µM
same,GI50,SF-295 CNS,28.3 µM
same,TGI,SF-295 CNS,> 100 µM
same,GI50,SF-539 CNS,50.8 µM
same,TGI,SF-539 CNS,> 100 µM
same,GI50,SK-MEL-2 melanoma,25.8 µM
same,TGI,SK-MEL-2 melanoma,85.2 µM
same,GI50,SK-MEL-28 melanoma,> 100 µM
same,TGI,SK-MEL-28 melanoma,> 100 µM
same,GI50,SK-MEL-5 melanoma,42.2 µM
same,TGI,SK-MEL-5 melanoma,95.6 µM
same,GI50,SK-OV-3 ovarian,39.9 µM
same,TGI,SK-OV-3 ovarian,> 100 µM
same,GI50,SN12C renal,37.7 µM
same,TGI,SN12C renal,> 100 µM
same,GI50,SNB-19 CNS,40.8 µM
same,TGI,SNB-19 CNS,> 100 µM
same,GI50,SNB-75 CNS,42.3 µM
same,TGI,SNB-75 CNS,> 100 µM
same,GI50,SNB-78 CNS,28.4 µM
same,TGI,SNB-78 CNS,93.8 µM
same,GI50,SW-620 colon,25.5 µM
same,TGI,SW-620 colon,> 100 µM
same,GI50,U251 CNS,41.6 µM
same,TGI,U251 CNS,> 100 µM
same,GI50,UACC-257 melanoma,30.4 µM
same,TGI,UACC-257 melanoma,96.9 µM
same,GI50,UACC-62 melanoma,11.9 µM
same,TGI,UACC-62 melanoma,28.8 µM
same,GI50,UO-31 renal,19.1 µM
same,TGI,UO-31 renal,44.5 µM
